# In doi:10.1101/2025.10.23.684218v2, “Development of a dual chemical probe for the USP16 and HDAC6 zinc-finger ubiquitin-binding domain” (biorxiv, 2025):
# Experiments:
# USP16-UBD (USP16 8-185) = USP16-UBD (USP16 8-185) (Homo sapiens, UniProt Q9Y5T5); test: ITC; type: binding
# NanoLuc-tagged HDAC6 [1] = molecular target: T1, NanoLuc-tagged HDAC6 (Homo sapiens, UniProt Q9UBN7); test: NanoBRET displacement of HaloTag-ISG15; type: cell-based
# T1 construct: N-terminal NanoLuc fusion in HEK293T
# T1 sequence (Q9UBN7 1-1215): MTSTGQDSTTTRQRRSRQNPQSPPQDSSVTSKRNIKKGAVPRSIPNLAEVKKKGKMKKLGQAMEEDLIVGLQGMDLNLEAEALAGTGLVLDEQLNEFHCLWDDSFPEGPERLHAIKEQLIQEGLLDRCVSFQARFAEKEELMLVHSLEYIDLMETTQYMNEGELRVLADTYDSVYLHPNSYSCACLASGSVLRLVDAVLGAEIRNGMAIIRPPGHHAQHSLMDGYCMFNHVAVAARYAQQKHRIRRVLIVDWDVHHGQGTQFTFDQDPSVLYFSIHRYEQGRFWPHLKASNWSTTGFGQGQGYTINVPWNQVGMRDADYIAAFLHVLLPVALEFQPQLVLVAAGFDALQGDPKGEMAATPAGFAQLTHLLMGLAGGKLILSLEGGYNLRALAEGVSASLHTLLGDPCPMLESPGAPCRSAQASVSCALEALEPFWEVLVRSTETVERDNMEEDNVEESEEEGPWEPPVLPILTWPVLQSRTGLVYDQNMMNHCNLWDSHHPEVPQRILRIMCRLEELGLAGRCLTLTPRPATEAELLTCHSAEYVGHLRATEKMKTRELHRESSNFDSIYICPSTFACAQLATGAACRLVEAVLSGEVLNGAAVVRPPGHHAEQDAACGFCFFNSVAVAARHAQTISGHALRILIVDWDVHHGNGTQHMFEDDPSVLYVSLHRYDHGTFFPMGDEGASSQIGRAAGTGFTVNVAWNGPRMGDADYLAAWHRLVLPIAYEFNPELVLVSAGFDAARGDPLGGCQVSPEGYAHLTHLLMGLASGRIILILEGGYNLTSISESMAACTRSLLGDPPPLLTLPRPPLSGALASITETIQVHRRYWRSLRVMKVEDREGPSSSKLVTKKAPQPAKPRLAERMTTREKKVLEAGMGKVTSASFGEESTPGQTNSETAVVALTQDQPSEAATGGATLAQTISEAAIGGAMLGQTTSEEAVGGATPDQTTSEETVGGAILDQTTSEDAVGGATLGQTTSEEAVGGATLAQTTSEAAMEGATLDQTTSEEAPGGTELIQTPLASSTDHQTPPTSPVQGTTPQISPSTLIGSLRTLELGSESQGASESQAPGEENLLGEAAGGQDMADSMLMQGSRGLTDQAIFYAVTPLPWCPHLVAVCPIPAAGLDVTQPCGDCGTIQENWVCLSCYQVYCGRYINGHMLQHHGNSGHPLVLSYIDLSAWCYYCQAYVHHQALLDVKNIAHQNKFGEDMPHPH
# USP16-UBD (USP16 25-185) = USP16-UBD (USP16 25-185) (Homo sapiens, UniProt Q9Y5T5); test: SPR, steady state; type: binding
# Chain of USP16-UBD (USP16 25-185) (Q9Y5T5 25-185): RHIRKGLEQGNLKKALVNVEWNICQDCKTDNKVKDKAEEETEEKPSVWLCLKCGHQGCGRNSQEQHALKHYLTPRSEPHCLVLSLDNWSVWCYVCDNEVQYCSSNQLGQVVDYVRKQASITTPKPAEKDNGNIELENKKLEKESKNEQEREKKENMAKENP
# USP16-FL (USP16 1-823) = molecular target: T2, USP16-FL (USP16 1-823) (Homo sapiens, UniProt Q9Y5T5); test: ubiquitin-rhodamine110 DUB assay; type: biochemical; settings: […] ubiquitin-rhodamine-[…] enzyme, pH […], up to […] compound
# T2 construct: full length 1-823, pFBOH-LIC, Sf9 baculovirus, Ni-NTA and MonoQ
# T2 sequence (Q9Y5T5 whole entry): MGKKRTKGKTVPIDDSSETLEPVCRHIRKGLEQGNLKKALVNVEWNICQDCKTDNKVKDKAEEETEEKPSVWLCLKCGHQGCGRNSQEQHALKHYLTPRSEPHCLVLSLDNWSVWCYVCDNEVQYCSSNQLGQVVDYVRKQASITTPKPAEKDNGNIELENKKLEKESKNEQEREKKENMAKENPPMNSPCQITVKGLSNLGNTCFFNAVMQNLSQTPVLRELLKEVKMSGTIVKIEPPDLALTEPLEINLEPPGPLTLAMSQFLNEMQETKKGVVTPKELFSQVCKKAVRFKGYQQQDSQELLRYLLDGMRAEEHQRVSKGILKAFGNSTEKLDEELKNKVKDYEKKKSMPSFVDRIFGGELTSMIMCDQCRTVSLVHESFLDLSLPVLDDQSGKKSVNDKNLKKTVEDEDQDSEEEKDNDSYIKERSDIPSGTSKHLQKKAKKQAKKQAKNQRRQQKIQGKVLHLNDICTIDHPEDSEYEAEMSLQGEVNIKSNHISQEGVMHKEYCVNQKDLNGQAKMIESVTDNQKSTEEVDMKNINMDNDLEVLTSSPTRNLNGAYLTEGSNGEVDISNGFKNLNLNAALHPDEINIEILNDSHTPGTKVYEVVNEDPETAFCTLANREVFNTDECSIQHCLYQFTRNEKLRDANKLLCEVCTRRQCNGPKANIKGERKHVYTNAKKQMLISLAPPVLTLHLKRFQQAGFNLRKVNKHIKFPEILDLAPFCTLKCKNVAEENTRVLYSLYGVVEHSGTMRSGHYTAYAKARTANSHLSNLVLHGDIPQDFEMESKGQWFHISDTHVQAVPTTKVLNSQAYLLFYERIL
# NanoLuc-tagged USP16 = molecular target: T3, NanoLuc-tagged USP16 (Homo sapiens, UniProt Q9Y5T5); test: NanoBRET displacement of HaloTag-ISG15; type: cell-based; settings: HEK293T cells, […]
# T3 construct: N-terminal NanoLuc fusion in HEK293T
# T3 sequence (Q9Y5T5 whole entry, the tested form may be a part): as the sequence (Q9Y5T5 whole entry) above
# NanoLuc-tagged HDAC6 [2] = molecular target: T1, NanoLuc-tagged HDAC6; test: NanoBRET displacement of HaloTag-ISG15; type: cell-based; settings: HEK293T cells, […]
# Chain of USP16-UBD (USP16 8-185) (Q9Y5T5 8-185): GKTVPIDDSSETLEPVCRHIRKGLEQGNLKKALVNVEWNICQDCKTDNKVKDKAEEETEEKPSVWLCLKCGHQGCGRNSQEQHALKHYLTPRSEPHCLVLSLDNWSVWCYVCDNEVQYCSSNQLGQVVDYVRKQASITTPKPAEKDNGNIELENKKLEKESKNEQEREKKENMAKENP
SMILES,Kd (USP16-UBD (USP16 8-185)) [nM],IC50 (NanoLuc-tagged HDAC6 [1]) [nM],Kd (USP16-UBD (USP16 25-185)) [nM],ubiquitin-rhodamine110 DUB assay (USP16-FL (USP16 1-823)),NanoBRET displacement of HaloTag-ISG15 (NanoLuc-tagged USP16),NanoBRET displacement of HaloTag-ISG15 (NanoLuc-tagged HDAC6 [2])
"C[C@H](NC(=O)Cn1c(CCC(=O)O)nc2c(Cl)cccc2c1=O)c1c(F)cccc1F [compound 15, (S)-3-(8-chloro-3-(2-((1-(2,6-difluorophenyl)ethyl)amino)-2-oxoethyl)-4-oxo-3,4-dihydroquinazolin-2-yl)propanoic acid]",50,1500 ± 200,48,,,
"C[C@@H](NC(=O)Cn1c(CCC(=O)O)nc2c(Cl)cccc2c1=O)c1c(F)cccc1F [compound 16, (R)-3-(8-chloro-3-(2-((1-(2,6-difluorophenyl)ethyl)amino)-2-oxoethyl)-4-oxo-3,4-dihydroquinazolin-2-yl)propanoic acid]",,,,the negative control shows no inhibition of DUB activity,SGC-UBD1031N did not inhibit the interaction of HDAC6 or USP16 and ISG15,SGC-UBD1031N did not inhibit the interaction of HDAC6 or USP16 and ISG15
